Two compounds from patent US9458430B2, “Differentiation of pluripotent stem cells” (Janssen Biotech, Inc., priority 2010, dated 2016) can be followed below.

What all share (assay type): cell-based
Test [1] concerns human embryonic stem cells line H1. Kind of test: Real-time PCR of pancreatic related genes in H1 cells differentiated by the Example 2 protocol. On the procedure: FIGS. 2A to 2E show real-time PCR data obtained from samples obtained from cells at stages III-IV, of the protocol outlined in Example 2, for NGN3 (FIG. 2A), NEUROD (FIG. 2B), CDX2 (FIG. 2C), NKX6.1 (FIG. 2D) and, PDX1 (FIG. 2E). The y-axis is fold expression over undifferentiated H1 cells.
Cells of the human embryonic stem cells line H1 (p40-p52) were seeded as single cells at a density of 100000 cells/cm^2 on MATRIGEL®-coated dishes (1:30 dilution) (BD Biosciences; Cat #356231) in MEF-CM (mouse embryonic fibroblast conditioned media supplemented) with 16 ng/ml of FGF2 (Catalog#100-18B, PeproTech, NJ) and 10 μM of Y27632 (Rock inhibitor, Catalogue #Y0503, Sigma, MO). 72 hours post seeding, cultures were differentiated into definitive endoderm (DE) as follows: • a. Stage I (Definitive Endoderm): Human embryonic stem cells were treated with MCDB-131 (Catalogue#10372-019, Invitrogen, CA) medium supplemented with 2% fatty acid-free BSA (Catalog#68700, Proliant, IA), 0.0025 g/ml sodium bicarbonate (Catalogue #S3187, Sigma, MO), 1× GlutaMax™ (Catalogue #35050-079, Invitrogen, Ca) and 100 ng/ml activin A (R&D Systems, MN) plus 20 ng/ml WNT-3a (Catalog#1324-WN-002, R&D Systems, MN) for one day, followed by treatment with MCDB-131 medium supplemented with 2% BSA, sodium bicarbonate, Glutamax, and 100 ng/ml activin A for an additional three days, then • b. Stage II (Primitive gut tube): Cells were treated with MCDB-131+2% fatty acid-free BSA and 50 ng/ml FGF7 and for three days, then • c. Stage III (Posterior foregut): Cells were treated with MCDB-131/High-Glucose (25 mM glucose) supplemented with 1:200 dilution of ITS-X (Invitrogen, CA), 1× GlutaMax™ (Catalogue #35050-079, Invitrogen, Ca), 0.0025 g/ml sodium bicarbonate (Catalogue #S3187, Sigma, MO), 0.1% BSA (Lipid Rich) (Invitrogen, Ca No. 11021-045), 50 ng/ml FGF7, 0.25 μM SANT-1, 2 μM Retinoic acid (RA) (Sigma, MO), 2.5 μM 4-[4-(4-Fluorophenyl)-1-(3-phenylpropyl)-5-pyridin-4-yl-1H-imidazol-2-yl]but-3-yn-1-ol (a p38 inhibitor, disclosed in U.S. Pat. No. 6,521,655), 100 nM LDN-193189 (BMP receptor inhibitor, Catalogue #04-0019, Stemgent, CA), 500 nM of the CYP26A inhibitor N-{4-[2-Ethyl-1-(1H-1,2,4-triazol-1-yl)butyl]phenyl}-1,3-benzothiazol-2-amine, and activin A at 20 ng/ml for four days, then • d. Stage IV (Pancreatic endocrine precursor): Cells were treated MCDB-131/High-Glucose (25 mM glucose) supplemented with 1:200 dilution of ITS-X (Invitrogen, CA) and 0.1% BSA (Invitrogen, Ca), 1× GlutaMax™ (Catalogue #35050-079, Invitrogen, Ca), 0.0025 g/ml sodium bicarbonate (Catalogue #S3187, Sigma, MO), 1 μM ALK5 inhibitor (SD-208, disclosed in Molecular Pharmacology 2007 72:152-161), 500 nM PDBu (PKC activator) (Catalogue #P1269, Sigma, MO), 100 nM LDN-193189 (BMP receptor inhibitor, Catalogue #04-0019, Stemgent, CA), 0.25 μM SANT-1 (#S4572, Sigma, MO), and 500 nM of the CYP26A inhibitor N-{4-[2-Ethyl-1-(1H-1,2,4-triazol-1-yl)butyl]phenyl}-1,3-benzothiazol-2-amine for seven days, or • e. Stage IV (Pancreatic endocrine precursor): Cells were treated MCDB-131/High-Glucose (25 mM glucose) supplemented with 1:200 dilution of ITS-X (Invitrogen, CA) and 0.1% BSA (Invitrogen, Ca), 1× GlutaMax™ (Catalogue #35050-079, Invitrogen, Ca), 0.0025 g/ml sodium bicarbonate (Catalogue #S3187, Sigma, MO), 1 μM ALK5 inhibitor (SD-208, disclosed in Molecular Pharmacology 2007 72:152-161), 500 nM PDBu (PKC activator) (Catalogue #P1269, Sigma, MO), 100 nM LDN-193189 (BMP receptor inhibitor, Catalogue #04-0019, Stemgent, CA), 0.25 μM SANT-1 (#S4572, Sigma, MO) for seven days.
mRNA was isolated at stages III and IV for real-time PCR analysis of pancreatic related genes. Similar to the results observed in Example 1 above, addition of CYP26A inhibitor to stage IV enhanced expression of pancreatic endocrine precursor markers, such as NGN3 and NeuroD. (See FIG. 2A to 2E).

Test [2] has the same test system. Kind of test: NGN3 immunostaining at stage IV of the Example 1 protocol. To be noted: 100 nM of the CYP26A inhibitor vs control.
Test [3] has the same test system. Kind of test: Real-time PCR of pancreatic related genes in H1 cells differentiated by the Example 1 protocol. Here is the method: FIGS. 1A to 1H show real-time PCR data obtained from samples obtained from cells at stages III-IV, of the protocol outlined in Example 1, for PAX4 (FIG. 1A), NGN3 (FIG. 1B), PDX1 (FIG. 1C), NEUROD (FIG. 1D), NKX6.1 (FIG. 1E), CDX2 (FIG. 1F), and Albumin (FIG. 1G). The y-axis is fold expression over undifferentiated H1 cells.
Cells of the human embryonic stem cells line H1 (p40-p50) were cultured on MATRIGEL®-coated dishes (1:30 dilution) (BD Biosciences; Cat #356231) in MEF-CM (mouse embryonic fibroblast conditioned medium) as colonies and differentiated into pancreatic endocrine precursor cells as follows: • a. Stage I (Definitive Endoderm): Human embryonic stem cells were cultured in RPMI medium supplemented with 2% fatty acid-free BSA (Catalog#68700, Proliant, IA), and 100 ng/ml activin A (R&D Systems, MN) plus 20 ng/ml WNT-3a (Catalog#1324-WN-002, R&D Systems, MN) plus 8 ng/ml of bFGF (Catalog#100-18B, PeproTech, NJ), for one day, followed by treatment with RPMI medium supplemented with 2% BSA and 100 ng/ml activin A plus 8 ng/ml of bFGF for an additional two days, then • b. Stage II (Primitive gut tube): Cells were treated with RPMI+2% fatty acid-free BSA and 50 ng/ml FGF7, for two days, then • c. Stage III (Posterior foregut): Cells were treated with DMEM/High-Glucose supplemented with 1:200 dilution of ITS-X (Invitrogen, CA) and 0.1% BSA (Lipid Rich) (Invitrogen, Ca No. 11021-045), 50 ng/ml FGF7, 0.25 μM SANT-1, 2 μM Retinoic acid (RA) (Sigma, MO), 100 ng/ml of Noggin (R & D Systems, MN), 2.5 μM 4-[4-(4-Fluorophenyl)-1-(3-phenylpropyl)-5-pyridin-4-yl-1H-imidazol-2-yl]but-3-yn-1-ol (a P38 inhibitor disclosed in U.S. Pat. No. 6,521,655), and activin A at 20 ng/ml for five days, then • d. Stage IV (Pancreatic endocrine precursor): Cells were treated with DMEM/High-Glucose supplemented with 1:200 dilution of ITS-X (Invitrogen, CA) and 0.1% BSA (Invitrogen, Ca), 100 ng/ml Noggin, 1 μM ALK5 inhibitor (SD-208, disclosed in Molecular Pharmacology 2007 72:152-161), 500 nM TPB (α-Amyloid Precursor Protein Modulator) (Catalogue #565740, EMD, CA), and 10-100 nM of the CYP26A inhibitor N-{4-[2-Ethyl-1-(1H-1,2,4-triazol-1-yl)butyl]phenyl}-1,3-benzothiazol-2-amine, and 10-100 nM Vitamin A (Catalogue#R7632, Sigma, MO) for four days, or
In some of the cultures, the Stage IV was extended to six days. mRNA was isolated at stages III and IV for real-time PCR analysis of pancreatic related genes.
Background: Real-time PCR tracks product formation cycle by cycle.

The mark [4] stands for this setting: 500 nM added to both stages III and IV.
Where [5] appears, read: 500 nM added to stage III in the presence of retinoic acid.
[6] abbreviates: added at stage IV, 10-100 nM, mRNA, real-time PCR, dose dependent.
[7] abbreviates: added at stage IV, mRNA, real-time PCR.

For `CCC(CC)[C@H](c1ccc(Nc2nc3ccccc3s2)cc1)n1cncn1` (stereo in doubt) [CYP26A inhibitor, N-{4-[2-Ethyl-1-(1H-1,2,4-triazol-1-yl)butyl]phenyl}-1,3-benzothiazol-2-amine], in test [1] (setting [4]), the “expression of NGN3” value is listed as “further enhanced” and the “expression of NeuroD” value was “further enhanced”. In test [1] (setting [5]), the “expression of CDX2” value is given as “enhancing”, the “expression of NKX6.1” value is given as “significantly down regulated” and the “expression of PDX-1” value is reported as “significantly down regulated”. In addition, in test [1] (500 nM added to stage IV), the “expression of pancreatic endocrine precursor marker NGN3” value is on record as “enhanced” and the “expression of pancreatic endocrine precursor marker NeuroD” value is on record as “enhanced”. In addition, the “expression of NGN3 by immunostaining” value in test [2] is on record as “significant boost”. For the same compound, in test [3] (setting [6]), the “expression of endocrine precursor marker NGN3” value was “significantly boosted”, the “expression of endocrine precursor marker NeuroD” value is given as “significantly boosted”, the “expression of endocrine precursor marker Pax4” value is “significantly boosted” and the “expression of pancreatic endoderm marker NKX6.1” value is reported as “significantly boosted”. Also, in test [3] (setting [7]), the “expression of CDX2 (an intestinal marker)” value was “decreased” and the “expression of albumin (a liver marker)” value is on record as “decreased”.
Consider Vitamin A, for which the “expression of pancreatic endoderm or endocrine precursor markers” value in test [3] (vitamin A 10-100 nM added along with the CYP26A inhibitor at stage IV) was “did not significantly modify”.
